# Assay results: the kinase profiling compilation of Christmann-Franck et al. (2016)
# Tests used:
# Assay in all cases: radiometric filter-binding kinase assay, Kinase HotSpot
# Details in all cases: compound 0.5 µM; ATP 10 µM
# CLK3 (human) = CLK3 (human) (UniProt P49761)
# FLT3 (human) = FLT3 (human) (UniProt P36888)
# PRKX (human) = PRKX (human) (UniProt P51817)
# SYK (human) = SYK (human) (UniProt P43405)
# MAP3K7 TAB1 (human) = MAP3K7 TAB1 (human) (UniProt O43318+Q15750)
# ALK (human) = ALK (human) (UniProt Q9UM73)
# CDK4 CCND3 (human) = CDK4 CCND3 (human) (UniProt P30281+P11802)
# PLK1 (human) = PLK1 (human) (UniProt P53350)
# SRC (human) = SRC (human) (UniProt P12931)
# FES (human) = FES (human) (UniProt P07332)
# EPHA8 (human) = EPHA8 (human) (UniProt P29322)
# MAP3K8 (human) = MAP3K8 (human) (UniProt P41279)
# MAPK13 (human) = MAPK13 (human) (UniProt O15264)
# FGFR3 (human) = FGFR3 (human) (UniProt P22607)
# ULK1 (human) = ULK1 (human) (UniProt O75385)
# MAP3K3 (human) = MAP3K3 (human) (UniProt Q99759)
# RPS6KB2 (human) = RPS6KB2 (human) (UniProt Q9UBS0)
# MAP3K5 (human) = MAP3K5 (human) (UniProt Q99683)
# CDK6 CCND3 (human) = CDK6 CCND3 (human) (UniProt P30281+Q00534)
# MAPK14 (human) = MAPK14 (human) (UniProt Q16539)
# CDK6 CCND1 (human) = CDK6 CCND1 (human) (UniProt Q00534+P24385)
# PRKCH (human) = PRKCH (human) (UniProt P24723)
# RET (human) = RET (human) (UniProt P07949)
# TBK1 (human) = TBK1 (human) (UniProt Q9UHD2)
# NTRK2 (human) = NTRK2 (human) (UniProt Q16620)
# PRKCD (human) = PRKCD (human) (UniProt Q05655)
# MLTK (human) = MLTK (human) (UniProt Q9NYL2)
# CAMKK1 (human) = CAMKK1 (human) (UniProt Q8N5S9)
# PRKG2 (human) = PRKG2 (human) (UniProt Q13237)
# MAP3K2 (human) = MAP3K2 (human) (UniProt Q9Y2U5)
# BTK (human) = BTK (human) (UniProt Q06187)
# RIPK2 (human) = RIPK2 (human) (UniProt O43353)
# FGFR2 (human) = FGFR2 (human) (UniProt P21802)
# PRKCG (human) = PRKCG (human) (UniProt P05129)
# CSNK1E (human) = CSNK1E (human) (UniProt P49674)
# EPHA1 (human) = EPHA1 (human) (UniProt P21709)
# CDK2 CCNA2 (human) = CDK2 CCNA2 (human) (UniProt P24941+P20248)
# FGFR4 (human) = FGFR4 (human) (UniProt P22455)
# MAP4K2 (human) = MAP4K2 (human) (UniProt Q12851)
# PIM3 (human) = PIM3 (human) (UniProt Q86V86)
# PAK4 (human) = PAK4 (human) (UniProt O96013)
# FGFR1 (human) = FGFR1 (human) (UniProt P11362)
# Sequence of ALK (human) (Q9UM73 whole entry, looked up): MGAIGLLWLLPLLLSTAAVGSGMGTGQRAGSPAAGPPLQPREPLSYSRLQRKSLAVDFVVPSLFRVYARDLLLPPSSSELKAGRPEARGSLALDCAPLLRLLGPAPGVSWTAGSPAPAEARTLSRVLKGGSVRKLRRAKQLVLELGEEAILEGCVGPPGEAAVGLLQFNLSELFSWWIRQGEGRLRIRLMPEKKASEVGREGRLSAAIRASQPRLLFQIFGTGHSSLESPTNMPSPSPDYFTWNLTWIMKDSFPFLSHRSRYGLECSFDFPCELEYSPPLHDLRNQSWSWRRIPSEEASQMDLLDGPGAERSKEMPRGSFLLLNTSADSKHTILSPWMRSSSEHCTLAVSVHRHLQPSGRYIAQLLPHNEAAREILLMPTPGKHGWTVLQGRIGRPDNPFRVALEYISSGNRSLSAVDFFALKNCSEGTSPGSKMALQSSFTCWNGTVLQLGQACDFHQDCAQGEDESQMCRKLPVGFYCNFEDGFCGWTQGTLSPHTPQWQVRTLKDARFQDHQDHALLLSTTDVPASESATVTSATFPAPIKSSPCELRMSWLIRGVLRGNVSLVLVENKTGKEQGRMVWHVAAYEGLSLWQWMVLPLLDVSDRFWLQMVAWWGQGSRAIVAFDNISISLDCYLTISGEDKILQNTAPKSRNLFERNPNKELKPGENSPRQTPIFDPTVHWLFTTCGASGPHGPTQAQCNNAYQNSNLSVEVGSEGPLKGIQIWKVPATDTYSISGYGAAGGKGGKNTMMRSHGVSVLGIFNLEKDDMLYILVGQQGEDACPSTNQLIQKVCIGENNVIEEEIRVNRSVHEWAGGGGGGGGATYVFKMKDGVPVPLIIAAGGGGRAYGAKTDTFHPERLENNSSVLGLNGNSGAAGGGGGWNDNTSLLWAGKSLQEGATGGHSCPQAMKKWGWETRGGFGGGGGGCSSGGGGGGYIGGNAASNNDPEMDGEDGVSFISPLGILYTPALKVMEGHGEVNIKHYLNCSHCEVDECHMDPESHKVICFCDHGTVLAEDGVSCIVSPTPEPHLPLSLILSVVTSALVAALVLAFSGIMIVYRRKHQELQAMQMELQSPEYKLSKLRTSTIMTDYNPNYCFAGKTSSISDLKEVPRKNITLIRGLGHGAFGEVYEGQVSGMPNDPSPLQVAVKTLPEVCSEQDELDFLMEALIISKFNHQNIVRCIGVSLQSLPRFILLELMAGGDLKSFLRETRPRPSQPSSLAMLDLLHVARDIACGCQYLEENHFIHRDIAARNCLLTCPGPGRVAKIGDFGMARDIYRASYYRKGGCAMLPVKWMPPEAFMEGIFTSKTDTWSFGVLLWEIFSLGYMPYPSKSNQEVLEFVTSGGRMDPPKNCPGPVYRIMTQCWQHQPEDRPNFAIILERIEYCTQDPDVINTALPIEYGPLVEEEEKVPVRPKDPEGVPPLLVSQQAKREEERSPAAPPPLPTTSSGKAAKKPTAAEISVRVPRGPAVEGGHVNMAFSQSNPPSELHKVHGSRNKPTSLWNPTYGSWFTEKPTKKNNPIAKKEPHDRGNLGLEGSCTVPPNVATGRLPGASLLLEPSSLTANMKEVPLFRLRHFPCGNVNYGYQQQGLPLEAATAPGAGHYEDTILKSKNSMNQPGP
# Sequence of PRKG2 (human) (Q13237 whole entry, looked up): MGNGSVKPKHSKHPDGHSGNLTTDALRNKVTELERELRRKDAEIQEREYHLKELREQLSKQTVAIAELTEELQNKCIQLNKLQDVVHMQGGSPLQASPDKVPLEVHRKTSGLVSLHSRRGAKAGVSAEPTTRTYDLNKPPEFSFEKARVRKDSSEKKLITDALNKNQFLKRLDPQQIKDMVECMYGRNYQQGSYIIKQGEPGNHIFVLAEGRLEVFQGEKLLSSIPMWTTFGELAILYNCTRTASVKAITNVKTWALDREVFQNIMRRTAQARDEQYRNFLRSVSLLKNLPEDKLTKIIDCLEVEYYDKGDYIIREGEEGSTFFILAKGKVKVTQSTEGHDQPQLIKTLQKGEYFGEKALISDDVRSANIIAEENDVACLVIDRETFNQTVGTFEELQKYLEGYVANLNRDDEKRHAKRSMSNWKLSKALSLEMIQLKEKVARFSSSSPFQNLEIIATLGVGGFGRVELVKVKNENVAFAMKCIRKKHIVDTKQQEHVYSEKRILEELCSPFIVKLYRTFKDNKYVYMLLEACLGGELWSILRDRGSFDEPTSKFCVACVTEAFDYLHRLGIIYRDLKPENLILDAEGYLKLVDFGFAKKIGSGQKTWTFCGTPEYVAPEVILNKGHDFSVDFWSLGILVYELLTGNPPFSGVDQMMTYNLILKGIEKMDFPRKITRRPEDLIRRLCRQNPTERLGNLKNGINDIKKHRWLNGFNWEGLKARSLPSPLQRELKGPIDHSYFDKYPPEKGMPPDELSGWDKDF
# Sequence of CDK6 CCND1 (human) (P24385 whole entry, looked up): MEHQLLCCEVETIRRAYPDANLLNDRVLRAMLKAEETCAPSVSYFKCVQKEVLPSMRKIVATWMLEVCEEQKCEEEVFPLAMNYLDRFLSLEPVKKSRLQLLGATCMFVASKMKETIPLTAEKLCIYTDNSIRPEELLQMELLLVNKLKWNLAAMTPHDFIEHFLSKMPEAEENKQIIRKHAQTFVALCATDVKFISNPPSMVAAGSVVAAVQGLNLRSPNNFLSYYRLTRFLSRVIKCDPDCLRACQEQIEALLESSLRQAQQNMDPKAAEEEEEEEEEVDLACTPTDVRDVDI
# Sequence of CDK6 CCND1 (human) (Q00534 whole entry, looked up): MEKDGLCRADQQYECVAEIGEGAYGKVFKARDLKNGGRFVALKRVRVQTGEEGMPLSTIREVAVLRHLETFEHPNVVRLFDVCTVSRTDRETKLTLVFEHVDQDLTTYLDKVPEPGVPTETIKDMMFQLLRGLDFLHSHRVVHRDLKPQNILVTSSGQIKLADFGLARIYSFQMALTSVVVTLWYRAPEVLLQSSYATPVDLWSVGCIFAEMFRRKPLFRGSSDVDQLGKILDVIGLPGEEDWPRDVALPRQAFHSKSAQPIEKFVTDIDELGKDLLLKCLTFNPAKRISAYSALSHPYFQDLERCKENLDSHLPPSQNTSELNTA
# Sequence of FGFR4 (human) (P22455 whole entry, looked up): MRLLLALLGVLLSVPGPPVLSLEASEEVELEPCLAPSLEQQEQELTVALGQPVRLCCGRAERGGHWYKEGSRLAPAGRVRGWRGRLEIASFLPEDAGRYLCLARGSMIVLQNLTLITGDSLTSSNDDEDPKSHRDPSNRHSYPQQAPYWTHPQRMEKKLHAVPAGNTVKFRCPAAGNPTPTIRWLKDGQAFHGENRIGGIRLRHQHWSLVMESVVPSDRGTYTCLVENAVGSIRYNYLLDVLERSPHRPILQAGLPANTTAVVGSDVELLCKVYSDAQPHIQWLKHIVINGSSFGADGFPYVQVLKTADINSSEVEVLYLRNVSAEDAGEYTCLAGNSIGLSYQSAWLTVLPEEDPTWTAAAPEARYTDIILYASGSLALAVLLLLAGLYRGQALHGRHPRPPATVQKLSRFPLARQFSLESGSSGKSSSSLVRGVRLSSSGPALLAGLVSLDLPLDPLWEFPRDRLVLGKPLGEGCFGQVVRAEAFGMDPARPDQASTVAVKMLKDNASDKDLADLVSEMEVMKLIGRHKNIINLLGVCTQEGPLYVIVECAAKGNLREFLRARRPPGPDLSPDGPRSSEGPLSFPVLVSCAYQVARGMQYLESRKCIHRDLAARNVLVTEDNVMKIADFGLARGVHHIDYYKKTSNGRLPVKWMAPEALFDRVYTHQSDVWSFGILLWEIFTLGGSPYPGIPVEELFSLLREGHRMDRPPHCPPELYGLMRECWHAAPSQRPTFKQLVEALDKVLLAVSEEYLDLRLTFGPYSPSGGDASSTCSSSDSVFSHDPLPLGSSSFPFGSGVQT
# Sequence of MAP3K2 (human) (Q9Y2U5 whole entry, looked up): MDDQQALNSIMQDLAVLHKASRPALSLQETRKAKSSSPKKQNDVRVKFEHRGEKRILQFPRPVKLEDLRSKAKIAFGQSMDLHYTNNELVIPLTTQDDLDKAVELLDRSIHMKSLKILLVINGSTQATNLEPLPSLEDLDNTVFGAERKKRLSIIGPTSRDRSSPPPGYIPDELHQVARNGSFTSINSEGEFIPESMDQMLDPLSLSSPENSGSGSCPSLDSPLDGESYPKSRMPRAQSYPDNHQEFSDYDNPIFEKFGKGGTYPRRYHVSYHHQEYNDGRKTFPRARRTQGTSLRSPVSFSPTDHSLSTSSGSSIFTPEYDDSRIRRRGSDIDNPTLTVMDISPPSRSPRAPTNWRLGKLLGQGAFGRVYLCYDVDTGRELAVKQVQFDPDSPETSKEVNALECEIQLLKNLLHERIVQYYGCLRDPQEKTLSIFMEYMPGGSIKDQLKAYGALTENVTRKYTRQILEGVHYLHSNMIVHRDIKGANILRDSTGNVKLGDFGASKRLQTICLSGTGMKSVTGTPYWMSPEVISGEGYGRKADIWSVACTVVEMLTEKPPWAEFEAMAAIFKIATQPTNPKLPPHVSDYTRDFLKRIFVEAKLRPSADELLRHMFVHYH
# Sequence of PLK1 (human) (P53350 whole entry, looked up): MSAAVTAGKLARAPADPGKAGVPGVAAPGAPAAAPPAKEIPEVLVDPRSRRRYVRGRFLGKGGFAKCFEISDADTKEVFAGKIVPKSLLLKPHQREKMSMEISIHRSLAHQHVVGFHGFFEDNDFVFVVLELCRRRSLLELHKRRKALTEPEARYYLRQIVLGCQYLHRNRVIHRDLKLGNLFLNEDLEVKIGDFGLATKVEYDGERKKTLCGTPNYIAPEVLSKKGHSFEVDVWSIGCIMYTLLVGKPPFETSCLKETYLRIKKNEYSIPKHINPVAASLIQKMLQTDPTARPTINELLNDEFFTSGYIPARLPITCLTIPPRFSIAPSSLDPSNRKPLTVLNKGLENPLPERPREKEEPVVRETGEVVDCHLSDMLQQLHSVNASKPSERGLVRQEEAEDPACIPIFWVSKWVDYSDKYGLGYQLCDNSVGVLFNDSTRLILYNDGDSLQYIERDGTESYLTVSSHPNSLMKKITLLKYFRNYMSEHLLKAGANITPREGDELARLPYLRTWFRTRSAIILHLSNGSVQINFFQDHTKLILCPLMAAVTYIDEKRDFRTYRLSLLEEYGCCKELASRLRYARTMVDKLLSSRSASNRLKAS
compound,measurement,setting,value
COc1cc2ncnc(Nc3ccc(OCc4ccccc4)cc3)c2cc1OC,residual activity,CLK3 (human),98.2%
same,residual activity,FLT3 (human),56.4%
same,residual activity,PRKX (human),105%
same,residual activity,SYK (human),93.1%
same,residual activity,MAP3K7 TAB1 (human),101%
same,residual activity,ALK (human),103%
same,residual activity,CDK4 CCND3 (human),102%
same,residual activity,PLK1 (human),101%
same,residual activity,SRC (human),102%
same,residual activity,FES (human),97%
same,residual activity,EPHA8 (human),102%
same,residual activity,MAP3K8 (human),90.1%
same,residual activity,MAPK13 (human),103%
same,residual activity,FGFR3 (human),102%
same,residual activity,ULK1 (human),107%
same,residual activity,MAP3K3 (human),88.7%
same,residual activity,RPS6KB2 (human),108%
same,residual activity,MAP3K5 (human),97.8%
same,residual activity,CDK6 CCND3 (human),97.8%
same,residual activity,MAPK14 (human),101%
same,residual activity,CDK6 CCND1 (human),96.7%
same,residual activity,PRKCH (human),97.2%
same,residual activity,RET (human),89.1%
same,residual activity,TBK1 (human),101%
same,residual activity,NTRK2 (human),92.5%
same,residual activity,PRKCD (human),101%
same,residual activity,MLTK (human),96.2%
same,residual activity,CAMKK1 (human),126%
same,residual activity,PRKG2 (human),104%
same,residual activity,MAP3K2 (human),113%
same,residual activity,BTK (human),90.6%
same,residual activity,RIPK2 (human),61.6%
same,residual activity,FGFR2 (human),103%
same,residual activity,PRKCG (human),98.5%
same,residual activity,CSNK1E (human),98.4%
same,residual activity,EPHA1 (human),102%
same,residual activity,CDK2 CCNA2 (human),100%
same,residual activity,FGFR4 (human),106%
same,residual activity,MAP4K2 (human),114%
same,residual activity,PIM3 (human),119%
same,residual activity,PAK4 (human),103%
same,residual activity,FGFR1 (human),91.3%
Cc1nc(-c2ccccc2)c(-c2ccncc2)o1,residual activity,CLK3 (human),90.6%
same,residual activity,FLT3 (human),95.2%
same,residual activity,PRKX (human),101%
same,residual activity,SYK (human),99.1%
same,residual activity,MAP3K7 TAB1 (human),93.6%
same,residual activity,ALK (human),108%
same,residual activity,CDK4 CCND3 (human),107%
same,residual activity,PLK1 (human),104%
same,residual activity,SRC (human),96.2%
same,residual activity,FES (human),101%
same,residual activity,EPHA8 (human),78.8%
same,residual activity,MAP3K8 (human),89.9%
same,residual activity,MAPK13 (human),114%
same,residual activity,FGFR3 (human),95.6%
same,residual activity,ULK1 (human),84.6%
same,residual activity,MAP3K3 (human),101%
same,residual activity,RPS6KB2 (human),96%
same,residual activity,MAP3K5 (human),102%
same,residual activity,CDK6 CCND3 (human),109%
same,residual activity,MAPK14 (human),76.3%
same,residual activity,CDK6 CCND1 (human),101%
same,residual activity,PRKCH (human),88.1%
same,residual activity,RET (human),97.5%
same,residual activity,TBK1 (human),88%
same,residual activity,NTRK2 (human),103%
same,residual activity,PRKCD (human),96.2%
same,residual activity,MLTK (human),89%
same,residual activity,CAMKK1 (human),123%
same,residual activity,PRKG2 (human),85%
same,residual activity,MAP3K2 (human),102%
same,residual activity,BTK (human),98.3%
same,residual activity,RIPK2 (human),87.4%
same,residual activity,FGFR2 (human),108%
same,residual activity,PRKCG (human),101%
same,residual activity,CSNK1E (human),69.9%
same,residual activity,EPHA1 (human),93.8%
same,residual activity,CDK2 CCNA2 (human),104%
same,residual activity,FGFR4 (human),76.5%
same,residual activity,MAP4K2 (human),106%
same,residual activity,PIM3 (human),106%
same,residual activity,PAK4 (human),101%
same,residual activity,FGFR1 (human),90.9%
COc1ccc(Cl)cc1NC(=O)Nc1cc(C)nc2ccccc12,residual activity,CLK3 (human),97.5%
same,residual activity,FLT3 (human),94.4%
same,residual activity,PRKX (human),98%
same,residual activity,SYK (human),88.2%
same,residual activity,MAP3K7 TAB1 (human),101%
same,residual activity,ALK (human),99.2%
same,residual activity,CDK4 CCND3 (human),98.5%
same,residual activity,PLK1 (human),96.9%
same,residual activity,SRC (human),99%
same,residual activity,FES (human),101%
same,residual activity,EPHA8 (human),97.8%
same,residual activity,MAP3K8 (human),99.5%
same,residual activity,MAPK13 (human),108%
same,residual activity,FGFR3 (human),96.3%
same,residual activity,ULK1 (human),91.2%
same,residual activity,MAP3K3 (human),111%
same,residual activity,RPS6KB2 (human),106%
same,residual activity,MAP3K5 (human),101%
same,residual activity,CDK6 CCND3 (human),99%
same,residual activity,MAPK14 (human),98.5%
same,residual activity,CDK6 CCND1 (human),89.8%
same,residual activity,PRKCH (human),88.6%
same,residual activity,RET (human),102%
same,residual activity,TBK1 (human),100%
same,residual activity,NTRK2 (human),94.6%
same,residual activity,PRKCD (human),96.3%
same,residual activity,MLTK (human),99.7%
same,residual activity,CAMKK1 (human),113%
same,residual activity,PRKG2 (human),105%
same,residual activity,MAP3K2 (human),98%
same,residual activity,BTK (human),102%
same,residual activity,RIPK2 (human),82.7%
same,residual activity,FGFR2 (human),96.9%
same,residual activity,PRKCG (human),107%
same,residual activity,CSNK1E (human),86.4%
same,residual activity,EPHA1 (human),88.6%
same,residual activity,CDK2 CCNA2 (human),98.6%
same,residual activity,FGFR4 (human),102%
same,residual activity,MAP4K2 (human),114%
same,residual activity,PIM3 (human),97.6%
same,residual activity,PAK4 (human),77.9%
same,residual activity,FGFR1 (human),86.1%
